Data reported in PMC7315563, “Bioactive fluorenes. Part III: 2,7-dichloro-9H-fluorene-based thiazolidinone and azetidinone analogues as anticancer and antimicrobial against multidrug resistant strains agents” (BMC Chemistry, 2020).
Converted amounts (≈) assume the structure as drawn.

Experiments:
[1] = system: Klebsiella pneumoniae (K. pneumoniae), multidrug resistant clinical isolate; test: agar well diffusion assay; format: cell-based; conditions: 24 h, 500 µg/mL of tested compound
Summary of the method: (§1)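 Multidrug-resistant clinical isolates swabbed on Mueller–Hinton agar at about 1–5 × 10^5 CFU/mL; 0.5 cm wells received 50 μL compound at 500 μg/mL in 1% DMSO. Incubation 24 h, 37 °C for bacteria and C. albicans, 25 °C for Aspergillus; inhibition zone diameter measured in mm.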

[2] = system: Pseudomonas aeruginosa (P. aeruginosa), multidrug resistant clinical isolate; test: agar well diffusion assay; format: cell-based; conditions: 24 h, 500 µg/mL of tested compound
Summary of the method: as §1

[3] = system: Staphylococcus aureus (S. aureus), multidrug resistant clinical isolate; test: agar well diffusion assay; format: cell-based; conditions: S. aureus, 500 µg/mL of tested compound, 24 h; for zone of inhibition at 500 µg/mL: Staphylococcus aureus
Summary of the method: as §1

[4] = system: MDA-MB-231 human breast cancer cells; test: cell viability assay (MTT); format: cell-based; conditions: 24 h; for viability at 1 µg/mL: read-out: Validity (%) for sample concentrations (µg/mL) 1; for viability at 10 µg/mL: read-out: Validity (%) for sample concentrations (µg/mL) 10; for viability at 31.25 µg/mL: read-out: Validity (%) for sample concentrations (µg/mL) 31.25; for viability at 62.5 µg/mL: read-out: Validity (%) for sample concentrations (µg/mL) 62.5; for viability at 125 µg/mL: read-out: Validity (%) for sample concentrations (µg/mL) 125; for viability at 250 µg/mL: read-out: Validity (%) for sample concentrations (µg/mL) 250; for viability at 500 µg/mL: read-out: Validity (%) for sample concentrations (µg/mL) 500
Summary of the method: (§2)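 Viability was read by MTT absorbance ([…]) after 24 h treatment with 0, 1, 10, 31.25, 62.5, 125, 250 or 500 µg/mL compound. Cultures were grown in RPMI-1640/10% FBS and plated at 5000 cells/well the day before dosing.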

[5] = system: WI-38 human normal fibroblast cells; test: cell viability assay (MTT); format: cell-based; conditions: 24 h; for viability at 31.25 µg/mL: read-out: Validity (%) for sample concentrations (µg/mL) 31.25; for viability at 62.5 µg/mL: 62.50 µg/mL, read-out: Validity (%) for sample concentrations (µg/mL) 62.50; for viability at 125 µg/mL: read-out: Validity (%) for sample concentrations (µg/mL) 125; for viability at 250 µg/mL: read-out: Validity (%) for sample concentrations (µg/mL) 250; for viability at 500 µg/mL: read-out: Validity (%) for sample concentrations (µg/mL) 500
Summary of the method: as §2

A549 cells = test: FACS analysis, Annexin V and PI staining; format: cell-based, human; conditions: 24 h, 5g 500, 6c 85, 6d 117, 6k 200 µg/mL
Method: (§3) To uncover the mechanism of cell death for the compounds 5h, 6c, 6d and 6k on WI-38, A549, and MDA-MB-231 cells; Annexin v and propedium Iodide (PI) were used. In brief, WI-38, A549, MDA-MB-231 cells were cultured in 10 tissue culture dish with initial number 4 × 10^5 cell/Ml in RPMI growth media. In the following day, cells were treated with 6c, 6d and 6k as the following; (0.0, 500 μg/mL form each drug for WI-38 treatment, 0.0, 85, 117 and 200 μg/mL; respectively, for […] and 0.0, 250 from each for MDA-MB-231 cells treatment). After 24 h incubations, cells were washed and trypsinized and suspended in 50 μL 1X Annexin v binding buffer followed by adding 5 μL FITC Annexin V and incubated for 15 min at room temperature then 5 μL of PI were added to each tube. Finally, 400 μL of 1X Annexin v binding buffer were added to each tube and analyzed using Becton-Dickinson FACS Caliber.

WI-38 cells = test: FACS analysis, Annexin V and PI staining; format: cell-based, human; conditions: 24 h, 5g 1000 µg/mL, 6c, 6d, 6k 500 µg/mL
Method: as §3

MDA-MB-231 cells = test: FACS analysis, Annexin V and PI staining; format: cell-based, human; conditions: 24 h, 5g 500, 6c 105, 6d 170, 6k 130 µg/mL
Method: To uncover the mechanism of cell death for the compounds 5h, 6c, 6d and 6k on WI-38, A549, and MDA-MB-231 cells; Annexin v and propedium Iodide (PI) were used. In brief, WI-38, A549, MDA-MB-231 cells were cultured in 10 tissue culture dish with initial number 4 × 10^5 cell/Ml in RPMI growth media. […] After 24 h incubations, cells were washed and trypsinized and suspended in 50 μL 1X Annexin v binding buffer followed by adding 5 μL FITC Annexin V and incubated for 15 min at room temperature then 5 μL of PI were added to each tube. Finally, 400 μL of 1X Annexin v binding buffer were added to each tube and analyzed using Becton-Dickinson FACS Caliber.

IC50 [4] | Structure (SMILES) | zone of inhibition at 500 µg/mL [1] | zone of inhibition at 500 µg/mL [2] | zone of inhibition at 500 µg/mL [3] | viability at 1 µg/mL [4] | viability at 10 µg/mL [4] | viability at 31.25 µg/mL [4] | viability at 62.5 µg/mL [4] | viability at 125 µg/mL [4] | viability at 250 µg/mL [4] | viability at 500 µg/mL [4] | viability at 31.25 µg/mL [5] | viability at 62.5 µg/mL [5] | viability at 125 µg/mL [5] | viability at 250 µg/mL [5] | viability at 500 µg/mL [5] | IC50 [5] | apoptotic cell death (of total cell number) (A549 cells) | necrotic cell death (of total cell number) (A549 cells) | apoptotic cell death (of total cell number) (WI-38 cells) | further results
131 mg/L (≈ 260 µM) | O=C1C(Cl)C(c2cccs2)N1c1nc(-c2cc(Cl)cc3c2-c2ccc(Cl)cc2C3)cs1 (stereo not drawn) [6k, 3-Chloro-1-(4-(2,7-dichloro-9H-fluoren-4-yl)thiazol-2-yl)-4-(thiophen-2-yl)azetidin-2-one] | 3 mm | 11 mm | 7 mm | 96.4% | 90.7% | 78.6% | 69.6% | 51% | 33.3% | 19.1% | 77.9% | 64% | 61.3% | 60.3% | 58.3% | > 500 mg/L | 32.67% | 1.71% | 0.61% | necrotic cell death (of total cell number) (WI-38 cells): 9.93%; apoptotic cell death (of total cell number) (MDA-MB-231 cells): 67.25%; necrotic cell death (of total cell number) (MDA-MB-231 cells): 4.56%
104 mg/L (≈ 195 µM) | O=C1C(Cl)C(c2ccc(Cl)cc2)N1c1nc(-c2cc(Cl)cc3c2-c2ccc(Cl)cc2C3)cs1 (stereo not drawn) [6c, 3-Chloro-4-(4-chlorophenyl)-1-(4-(2,7-dichloro-9H-fluoren-4-yl)thiazol-2-yl)azetidin-2-one] | 6 mm | 10 mm | 7 mm | 92.8% | 77.8% | 63.1% | 53.1% | 46% | 29.4% | 24.8% | 94.5% | 65.9% | 63.4% | 59.5% | 55.5% | > 500 mg/L | 27.32% | 2.1% | 1.22% | necrotic cell death (of total cell number) (WI-38 cells): 14.5%; apoptotic cell death (of total cell number) (MDA-MB-231 cells): 80.32%; necrotic cell death (of total cell number) (MDA-MB-231 cells): 2.15%
169 mg/L (≈ 293 µM) | O=C1C(Cl)C(c2ccc(Br)cc2)N1c1nc(-c2cc(Cl)cc3c2-c2ccc(Cl)cc2C3)cs1 (stereo not drawn) [6d, 4-(4-Bromophenyl)-3-chloro-1-(4-(2,7-dichloro-9H-fluoren-4-yl)thiazol-2-yl)azetidin-2-one] | 6 mm | 10 mm | 3 mm | 93.3% | 89.1% | 75.8% | 63.3% | 53.1% | 27.7% | 24% | 92% | 88.1% | 78.6% | 67.5% | 67.7% | > 500 mg/L | 36.3% | 2% | 1.34% | Mean zone of inhibition [3]: low activity; necrotic cell death (of total cell number) (WI-38 cells): 14.1%; apoptotic cell death (of total cell number) (MDA-MB-231 cells): 55.355%
